{"source": "patent US12083105B2", "about": "“Compositions and methods for treating adult-onset neuronal ceroid lipofuscinosis (Kufs disease)” (CORNELL UNIVERSITY, priority 2020, dated 2024)", "system": "synaptic SNARE-complex", "assay": "SNARE-complex assembly in primary neurons (Syb-2 immunoprecipitation, co-IP of Synt-1 and SNAP-25)", "type": "cell-based, mice", "settings": "CSPα^L115R and CSPα^L116Δ expressing neurons; 200 μM, 72 h; compared to vehicle only; FIG. 3E", "source_text": "For the experiments shown in FIGS. 3A-3E, primary cortical neurons from neonatal CSPα^−/− mice were infected with lentiviruses expressing Myc-tagged CSPα^WT, CSPα^L115R, CSPα^L116Δ, SSPα, or empty lentivirus (Control) on 7 days in vitro (DIV) and examined on 17 DIV. […] The lentivirus infected cells were stained using antibodies against Myc (green), somatodendritic marker MAP2 (red), and counterstained with nuclear stain DAPI (blue). […] Immunoprecipitation (IP) for SNAP-25 was followed by quantitative immunoblotting of the co-immunoprecipitated (co-IP'd) CSPα (top blot), and normalized to the IP'd SNAP-25 (bottom blot). IP: Control=sham IP without IgG. Palm=palmitoylated. […] N.D.=not detected. […] Immunoprecipitation using anti-synaptobrevin-2 (Syb-2) antibody was followed by quantitative immunoblotting of co-IP'd SNARE-complex partners syntaxin-1 (Synt-1) and SNAP-25. […] Cell extracts were separated by SDS-PAGE, and subjected to quantitative immunoblotting using anti-SNAP-25 antibody and β-actin for normalization. To measure palmitoylation, oligomers were disrupted by lysing neurons in 0.1 N HCl plus 0.1% Triton X-100 for 20 min at 4° C., followed by SDS-PAGE and quantitative immunoblotting against CSPα. […] FIG. 3D (right panel) show quantitation of oligomers, palmitoylated CSPα, respectively, in corresponding lane and expressed as a percentage of total. […]"}
{"smiles": "CC(=O)N(O)CCCCCNC(=O)CCC(=O)N(O)CCCCCNC(=O)CCC(=O)N(O)CCCCCN", "note": "[Dfx, N′-[5-(Acetyl-hydroxy-amino)pentyl]-N-[5-[3-(5-aminopentyl-hydroxy-carbamoyl)propanoylamino]pentyl]-N-hydroxy-butane diamide]", "values": [{"measurement": "level of co-immunoprecipitated Synt-1 and SNAP-25 (SNARE-complex assembly)", "result": "increased level"}]}
{"smiles": "Cc1c(O)c(=O)ccn1C", "note": "[L1, 3-hydroxy-1,2-dimethyl-4(1H)-pyridone]", "values": [{"measurement": "level of co-immunoprecipitated Synt-1 and SNAP-25 (SNARE-complex assembly)", "result": "increased level"}]}
